Data published in EP4509145A1, “PSMA THERANOSTIC COMPOUNDS ASSEMBLED WITH TETRAZINE-TRANS-CYCLOOCTENE LIGATION” (University of Copenhagen, priority 2023, dated 2025).
Where two headings read alike, the source gives them in different places.

How the values were obtained:
LNCaP cells = assay: internalization assay (surface binding and internalization, with and without 2-PMPA block); assay type: cell-based; settings: for Cell surface / Internalized: n = 4; for Cell surface blocked / Internalized blocked: with 2-PMPA 500 µM/well
Method: Poly-L-Lysine (300 µL of a 0.01% w/v in H2O) is added to each well of a 24-well plate (Greiner Bio). The plate is left at room temperature for 20-30 minutes. Afterwards, the poly-L-lysine solution is removed, and the wells washed with 500 µL of PBS. Afterwards, 1 mL of LNCaP cells suspension is placed in each well to obtain 10^5 cells/well. The 24-well plates are left in the incubator overnight until the start of the internalisation experiment. Subsequently, the previously plated cells were incubated at 37 °C with the selected ^18 F-labelled PSMA derivative in 250 µL growth medium for 45 min (c = 32 nM). For the determination of specific uptake, 2-PMPA was added into half of the wells in an excess concentration of 500 µM/well. After incubation, cellular uptake was interrupted by removing the medium and washing the cells with ice-cold PBS (3 × 1 mL). The surface bound radioactivity was removed by washing with 50 mM glycine (pH 2.8, 2 × 500 µL). Finally, the internalized fraction was determined by lysis of the cells with 0.3 M NaOH (1 × 500 µL). Fractions collected from the surface bound activity and lysates were collected and measured in a gamma counter. All counts were normalized to the starting activity and specific surface binding as well as specific internalization were determined by subtracting the non-specific binding obtained from the wells treated with 2-PMPA. Results were calculated and expressed as %AA/10^5 cells (% applied activity/105 cells, n = 4). [^68Ga]-PSMA617 was selected as a reference to compare internalization values. The experiment was conducted two times on different compounds. PSMA-617 was used as a reference and internal control for both experiments. […] The higher internalization could have a big impact on the therapeutic effect of such molecules.

[1] = in vivo PET imaging in rats of [^18F]-labeled PSMA derivatives; settings: healthy rats, i.v., 90-min PET acquisition (Figure 15)
Method: Long-Evans female rats weighing 200 - 300 g (Charles River, Calco, Italy), were housed in a cage of 2-3 rats per cage and kept in a climate-controlled facility with a 12-hr light/dark cycle. The cages had environmental enrichment (nest box, biting stick). All rats were fed ad libitum with commercial breeding diet (1310 FORTI-Avlsfoder, Brogaarden, Altromin International) and had free access to water. All the experiments were performed in accordance with the European Commission's Directive 2010/63/EU, FELASA and ARRIVE guidelines for animal research and, with approval from The Danish Council for Animal Ethics (license numbers 2017-15-0201-01283 and 2017-15-0201-01375) together with the Department of Experimental Medicine, University of Copenhagen.
The scans were performed on the Siemens HRRT (High-Resolution Research Tomography) (CPS Innovations/Siemens, Malvern, PA, USA). On the day of experiment, the rats were weighed and then transported to the scanner at least 2 h before the scan. Anesthesia was induced using 3% isoflurane in oxygen flow. All rats were placed in a 2 × 2 custom made rat holder, enabling simultaneous scanning of four rats 17-19. While in the custom-made rat holder, the rats were kept under anesthesia with a constant flow of isoflurane (-2% isoflurane in oxygen). […]

PSMA = target: T1, PSMA (Rattus norvegicus, UniProt P70627); assay: in vitro autoradiography competition assay on rat brain slices against [^111In]In-PSMA-617; assay type: binding
T1 construct: tissue Taconic Biosciences (rats); host or cells: rat brain, sagittal slices containing midbrain
T1 sequence (P70627 whole entry): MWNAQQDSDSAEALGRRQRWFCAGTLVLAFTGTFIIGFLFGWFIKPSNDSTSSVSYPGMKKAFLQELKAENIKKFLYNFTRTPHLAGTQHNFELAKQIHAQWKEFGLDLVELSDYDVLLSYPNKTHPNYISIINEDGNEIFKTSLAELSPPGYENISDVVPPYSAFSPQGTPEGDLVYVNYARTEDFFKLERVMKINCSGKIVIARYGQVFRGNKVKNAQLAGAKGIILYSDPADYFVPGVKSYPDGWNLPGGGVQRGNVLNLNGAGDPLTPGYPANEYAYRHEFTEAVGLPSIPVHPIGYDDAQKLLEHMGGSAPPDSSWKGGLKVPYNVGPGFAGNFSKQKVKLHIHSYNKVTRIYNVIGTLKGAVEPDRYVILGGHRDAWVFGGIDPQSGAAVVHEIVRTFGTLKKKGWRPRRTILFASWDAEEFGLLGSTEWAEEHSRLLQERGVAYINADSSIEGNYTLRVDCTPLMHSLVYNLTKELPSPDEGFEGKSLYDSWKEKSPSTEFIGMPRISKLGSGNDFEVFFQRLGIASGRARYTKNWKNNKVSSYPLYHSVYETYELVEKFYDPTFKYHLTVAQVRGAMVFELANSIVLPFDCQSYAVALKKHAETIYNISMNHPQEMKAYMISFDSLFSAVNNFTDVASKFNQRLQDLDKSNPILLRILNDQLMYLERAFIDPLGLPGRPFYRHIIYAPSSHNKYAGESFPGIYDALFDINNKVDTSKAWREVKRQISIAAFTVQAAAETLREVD
Method: This method provided [^111In]-PSMA-617 in >95% radiochemical yield, as determined by reverse-phase HPLC.
Rat brain slices were obtained from female Sprague-Dawley rats (weight~250g; Taconic Biosciences). The rats were sacrificed by decapitation, brains were extracted, frozen at -80 °C and stored at the same temperature. To prepare slices for autoradiography, brains were cut into halves along the sagittal symmetry plane. Each half was mounted, lateral side up, on the cryostat sample holder pretreated by Tissue-Tek OCT compound and fixed by freezing in the cryostat. […]
For competition assay, the slides were incubated with 2 nM [^111In]In-PSMA-617 and increasing concentrations (0.1-30 nM) of investigated PSMA derivatives for the same amount of time in the same assay buffer. Non-specific binding was determined by adding 5 µM 2-(phosphonomethyl)pentanedioic acid (PMPA) to [^111In]In-PSMA-617 solutions. […]
The screens were then read by a Cyclone Plus storage phosphor system (Packard Instruments Co). Quantification of readings was done with Optiquant software (version 3.00, Packard Instruments Co). Namely, elliptic regions of interest (ROIs) encompassing the midbrain and cerebellar nuclei were drawn inside the brain slice images, while circular ROIs were drawn around calibration curve spots, and average exposure was calculated for both ROI categories. […]

[2] = first experiment, LNCaP, 37 °C, 45 min, c = 32 nM
[3] = second experiment ([^68Ga] compounds), LNCaP, 37 °C, 45 min, c = 32 nM
[4] = second experiment ([^68Ga] compounds)

Row | SMILES | Cell surface (LNCaP cells; [2]) | Internalized (LNCaP cells; [2]) | Cell surface blocked (LNCaP cells; [2]) | Internalized blocked (LNCaP cells; [2]) | excretion route [1] | Ki (PSMA; competition with 2 nM [^111In]In-PSMA-617, 1.5 h, Ki from IC50 by Cheng-Prusoff, mean ± SD, number of determinations in parentheses, read-out: Affinity (Ki)) | Ki (PSMA; read-out: Affinity (Ki), competition with 2 nM [^111In]In-PSMA-617, 1.5 h, Ki from IC50 by Cheng-Prusoff, mean ± SD, number of determinations in parentheses) | Cell surface (LNCaP cells; [3]) | Internalized (LNCaP cells; [3]) | Cell surface blocked (LNCaP cells; [4]) | Internalized blocked (LNCaP cells; [4])
1 | O=C(O)CC[C@H](NC(=O)N[C@@H](CCCCNC(=O)[C@H](Cc1ccc2ccccc2c1)NC(=O)[C@H]1CC[C@H](CNC(=O)CN2C(=O)c3cc4nc5c(nc4cc3C2=O)CCc2c(cnnc2-c2ccc(OCCF)cc2)CC5)CC1)C(=O)O)C(=O)O [[^18F]16, PSMA-NH-T4CO-FTz] | 0.36 ± 0.03 %AA/10^5 cells | 1.98 ±0.17 %AA/10^5 cells | 0.09 ± 0.01 %AA/10^5 cells | 0.78 ± 0.11 %AA/10^5 cells | excreted mainly through the liver |  |  |  |  |  | 
2 | N=C(N)NCCCC(NC(=O)CN1C(=O)c2cc3nc4c(nc3cc2C1=O)CCc1c(cnnc1-c1ccc(OCC[18F])cc1)CC4)C(=O)NC(CCC(=O)O)C(=O)NC(CCCNC(=N)N)C(=O)NC(CCC(=O)O)C(=O)NC(CCCNC(=N)N)C(=O)NC(CCC(=O)O)C(=O)NCC1CCC(C(=O)NC(Cc2ccc3ccccc3c2)C(=O)NCCCCC(NC(=O)NC(CCC(=O)O)C(=O)O)C(=O)O)CC1 (centres unmarked) [[^18F]30, PSMA-NH-AAAAAA-T4CO-FTz] | 0.64 ± 0.10 %AA/10^5 cells | 0.54 ± 0.06 %AA/10^5 cells | 0.08 ± 0.01 %AA/10^5 cells | 0.07 ± 0.01 %AA/10^5 cells |  | 3.1 ± 0.28 nM |  |  |  |  | 
3 | N=C(N)NCCCC(NC(=O)CN1C(=O)c2cc3nc4c(nc3cc2C1=O)CCc1c(cnnc1-c1ccc(OCC[18F])cc1)CC4)C(=O)NC(CCCNC(=N)N)C(=O)NC(CCCNC(=N)N)C(=O)NCC1CCC(C(=O)NC(Cc2ccc3ccccc3c2)C(=O)NCCCCC(NC(=O)NC(CCC(=O)O)C(=O)O)C(=O)O)CC1 (centres unmarked) [[^18F]40, PSMA-3Arg-NH-T4CO-FTz] | 5.15 ± 0.87 %AA/10^5 cells | 4.53 ± 0.55 %AA/10^5 cells | 4.70 ± 1.05 %AA/10^5 cells | 4.10 ± 0.65 %AA/10^5 cells |  |  | 47.5 nM |  |  |  | 
4 | O=C(O)CC[C@H](NC(=O)N[C@@H](CCCCNC(=O)[C@H](Cc1ccc2ccccc2c1)NC(=O)[C@H]1CC[C@H](CNC(=O)CN2CCN(CC(=O)O)CCN(CC(=O)O)CCN(CC(=O)O)CC2)CC1)C(=O)O)C(=O)O [[^68Ga]-PSMA-617, vipivotide tetraxetan, metal not drawn, reference compound] | 0.36 ± 0.03 %AA/10^5 cells | 0.27± 002 %AA/10^5 cells | 0.03± 0.01 %AA/10^5 cells | 0.03 ± 0.01 %AA/10^5 cells |  |  |  | 0.36 ± 0.03 %AA/10^5 cells | 0.13± 001 %AA/10^5 cells | 0.03± 0.01 %AA/10^5 cells | 0.02 ± 0.01 %AA/10^5 cells
